The molecules below were run against T1, Promotilin (Homo sapiens, UniProt P12872).
T1 sequence (P12872 whole entry): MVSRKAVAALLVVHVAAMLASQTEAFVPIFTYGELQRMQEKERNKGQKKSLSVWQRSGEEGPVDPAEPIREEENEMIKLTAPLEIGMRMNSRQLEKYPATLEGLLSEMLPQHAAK

Ki	SMILES
2.3 nM	CC[C@H](C)[C@H](NC(=O)[C@@H]1CCCN1C(=O)[C@@H](NC(=O)[C@@H](N)Cc1ccccc1)C(C)C)C(=O)N[C@@H](Cc1ccccc1)C(=O)N[C@H](C(=O)N[C@@H](Cc1ccc(O)cc1)C(=O)NCC(=O)N[C@@H](CCC(=O)O)C(=O)N[C@@H](CC(C)C)C(=O)N[C@@H](CCC(N)=O)C(=O)N[C@@H](CCCNC(=N)N)C(=O)N[C@@H](CCSC)C(=O)N[C@@H](CCC(N)=O)C(=O)N[C@@H](CCC(=O)O)C(=O)N[C@@H](CCCCN)C(=O)N[C@@H](CCC(=O)O)C(=O)N[C@@H](CCCNC(=N)N)C(=O)N[C@@H](CC(N)=O)C(=O)N[C@@H](CCCCN)C(=O)NCC(=O)N[C@@H](CCC(N)=O)C(=O)O)[C@@H](C)O [CAS_52906-92-0]
420 nM	CC[C@H](C)[C@H](NC(=O)[C@H](CCCN=C(N)N)NC(=O)[C@H](CCC(N)=O)NC(=O)[C@H](CC(C)C)NC(=O)[C@H](CCC(=O)O)NC(=O)CNC(=O)[C@H](Cc1ccc(O)cc1)NC(=O)[C@@H](NC(=O)[C@@H](Cc1ccc(C(=O)c2ccccc2)cc1)NC(=O)[C@@H](NC(=O)[C@@H]1CCCN1C(=O)[C@@H](NC(=O)[C@@H](N)Cc1ccccc1)C(C)C)[C@@H](C)CC)[C@@H](C)O)C(=O)N[C@@H](CCC(N)=O)C(=O)N[C@@H](CCC(=O)O)C(=O)N[C@@H](CCCCN)C(=O)N[C@@H](CCC(=O)O)C(=O)N[C@@H](CCCN=C(N)N)C(=O)N[C@@H](CC(N)=O)C(=O)N[C@@H](CCCCN)C(=O)NCC(=O)N[C@@H](CCC(N)=O)C(=O)O [[D-Bpa5,Ile13]Motilin]
50 nM	CC[C@H](C)[C@H](NC(=O)[C@H](CCCN=C(N)N)NC(=O)[C@H](CCC(N)=O)NC(=O)[C@H](CC(C)C)NC(=O)[C@H](CCC(=O)O)NC(=O)CNC(=O)[C@H](Cc1ccc(O)cc1)NC(=O)[C@@H](NC(=O)[C@H](Cc1ccc(C(=O)c2ccccc2)cc1)NC(=O)[C@@H](NC(=O)[C@@H]1CCCN1C(=O)[C@@H](NC(=O)[C@@H](N)Cc1ccccc1)C(C)C)[C@@H](C)CC)[C@@H](C)O)C(=O)N[C@@H](CCC(N)=O)C(=O)N[C@@H](CCC(=O)O)C(=O)N[C@@H](CCCCN)C(=O)N[C@@H](CCC(=O)O)C(=O)N[C@@H](CCCN=C(N)N)C(=O)N[C@@H](CC(N)=O)C(=O)N[C@@H](CCCCN)C(=O)NCC(=O)N[C@@H](CCC(N)=O)C(=O)O [[L-Bpa5,Ile13]Motilin]

Source: BindingDB's records for doi:10.1124/jpet.104.081562 (Mayo Clinic, 2005)
